Columns and labels:
Type in all cases: cell-based, mouse
[1] = test system: day 17 EB derived hepatocyte lineage cells (ES cell line D3); assay: Sandwich ELISA for detection of albumin secretion; parameters: key to ALB Secretion: A (+) represents at least one time point of significant expression or secretion function in the three conditions.; A (−) represents functions which were absent on all experimental days
Experimental: (§1) In order to induce differentiation, cells were suspended in Iscove's modified Dulbecco's medium (Gibco) containing 20% fetal bovine serum (Gibco), 4 mM L-glutamine (Gibco), 100 U/ml penicillin, 100 U/ml streptomycin (Gibco), 10 ug/ml gentamicin (Gibco). Embryoid bodies were formed and cultured for two days using the hanging drop method (1×10^3 ES cells per 30 ul drop). Hanging drops where transferred to suspension culture in 100 mm petri dishes and cultured for an additional 2 days. The EB's were then plated, one EB per well, in 6 well tissue culture polystyrene plates (BD-Biosciences) for an additional 14 days. For secondary culture day 17 EBs cells were detached following incubation with 0.5 ml of trypsin (Gibco) for three minutes, resulting in a single cell suspension, and subsequently the addition of IMDM media. Cells from day 17 EB's were used because it has been observed that hepatocyte function is greatest on day 17. […]
In order to detect secreted albumin within the media supernatants obtained on each of the analysis days, we used a commercially available mouse albumin ELISA kit (Bethyl Laboratories, #E90-134). […] Absorbance readings were obtained using a Biorad (Hercules, Calif.) Model 680 plate reader with a 450 nm emission filter. Albumin values were normalized to the cell number recorded on the day of media sample collection.

[2] = test system: day 17 EB derived hepatocyte lineage cells (ES cell line D3); assay: Cell number / proliferation in secondary culture; settings: collagen sandwich configuration, within 10 days
Experimental: as §1, with “media.” for “media. Cells from day 17 EB's were used because it has been observed that hepatocyte function is greatest on day 17.”
Therefore, cultures were established to study the maintenance and augmentation of hepatocyte like function previously observed after 17 days of spontaneous EB mediated differentiation. Hepatocyte lineage maintenance was initially assessed by examining the dynamics of cell growth following removal of cells from their primary EB culture and re-plating into tissue culture polystyrene. 5×10^4 cells from day 17 EB cultures were re-plated into one well of a six well plate and evaluated on days 4, 6, 8 and 10 days post re-plating. […]

[3] = test system: day 17 EB derived hepatocyte lineage cells (ES cell line D3); assay: In situ indirect immunofluorescent cytokeratin-18 analysis; parameters: key to CK18: A (+) represents at least one time point of significant expression or secretion function in the three conditions.; A (−) represents functions which were absent on all experimental days
Experimental: as §1, with “17. Cells were then re-plated in 6 well tissue culture polystyrene (BD-Biosciences) at an initial seeding density of 5×10^4 day 17 cells per well for further analysis. Culture medium was changed every forty eight hours. When OSM and SNAP were supplemented, 10 ng/ml OSM and 250 μM SNAP were added to the culture medium.” for “17.”

[4] = test system: day 17 EB derived hepatocyte lineage cells (ES cell line D3); assay: Glycogen storage; parameters: key to Glycogen: A (+) represents at least one time point of significant expression or secretion function in the three conditions.; A (−) represents functions which were absent on all experimental days
[5] = test system: day 17 EB derived hepatocyte lineage cells (ES cell line D3); assay: Urea secretion; parameters: key to Urea: A (+) represents at least one time point of significant expression or secretion function in the three conditions.; A (−) represents functions which were absent on all experimental days
Experimental: as §1, with “17. Cells were then re-plated in 6 well tissue culture polystyrene (BD-Biosciences) at an initial seeding density of 5×10^4 day 17 cells per well for further analysis.” for “17.”
Media samples were collected on all analysis days. […] Absorbance readings were obtained using a Biorad (Hercules, Calif.) Model 680 plate reader with a 585 nm emission filter. Urea values were normalized to the cell number recorded on the day of media sample collection.

[6] = test system: day 17 EB derived hepatocyte lineage cells (ES cell line D3); assay: In situ indirect immunofluorescent intracellular albumin analysis; parameters: key to Intracellular ALB: A (+) represents at least one time point of significant expression or secretion function in the three conditions.; A (−) represents functions which were absent on all experimental days
Experimental: In order to induce differentiation, cells were suspended in Iscove's modified Dulbecco's medium (Gibco) containing 20% fetal bovine serum (Gibco), 4 mM L-glutamine (Gibco), 100 U/ml penicillin, 100 U/ml streptomycin (Gibco), 10 ug/ml gentamicin (Gibco). Embryoid bodies were formed and cultured for two days using the hanging drop method (1×10^3 ES cells per 30 ul drop). Hanging drops where transferred to suspension culture in 100 mm petri dishes and cultured for an additional 2 days. The EB's were then plated, one EB per well, in 6 well tissue culture polystyrene plates (BD-Biosciences) for an additional 14 days. For secondary culture day 17 EBs cells were detached following incubation with 0.5 ml of trypsin (Gibco) for three minutes, resulting in a single cell suspension, and subsequently the addition of IMDM media. Cells from day 17 EB's were used because it has been observed that hepatocyte function is greatest on day 17. Cells were then re-plated in 6 well tissue culture polystyrene (BD-Biosciences) at an initial seeding density of 5×10^4 day 17 cells per well for further analysis. Culture medium was changed every forty eight hours. When OSM and SNAP were supplemented, 10 ng/ml OSM and 250 μM SNAP were added to the culture medium. When collagen sandwich culture was used, rat tail type I collagen (BD-Biosciences) gels were prepared by distributing 350 μL of collagen gel solution (3 parts 1.33×DMEM, pH 7.4, and 1 part collagen solution at 4 mg/mL, chilled on ice and mixed immediately prior to use) evenly over one well of a six well plate (BD-Biosciences) and incubated at 37° C. for at least one hour before use. 5×10^5 cells were seeded in 2 mL of IMDM media on day 0 and an additional 350 μL of collagen gel solution was distributed over the cells after 1 day of culture. Therefore, the second layer of collagen is added on day 1 of secondary culture protocol. One hour of incubation at 37° C. was allowed for gelation and attachment of the second gel layer before the medium was replaced. Culture medium was changed every forty eight hours. […]

[7] = test system: day 17 EB derived hepatocyte lineage cells (ES cell line D3); assay: Cytochrome P450 activity (resorufin o-dealkylase, BROD/MROD); parameters: key to CYP450: A (+) represents at least one time point of significant expression or secretion function in the three conditions.; A (−) represents functions which were absent on all experimental days
Experimental: On evaluation days 4, 6, 8 and 10 days in secondary culture, cells were re-plated into 12 well plates. 3-Methylcholanthrene was used at a concentration of 2 μM (Sigma-Aldrich) for 48 hours prior to the addition of resorufin as an inducer of cytochrome P450 activities. Cytochrome P450-dependent resorufin o-dealkylase activity (BROD, PROD, EROD, and MROD) was measured using resorufin substrates namely pentoxy-, benzyloxy-, ethoxy-, and methoxyresorufin from a Resorufin Sampler Kit (Invitorgen, Carlsbad, Calif.). […] The fluorescence of the plate was measured using a fluorescence plate reader (DTX880, Beckman Coltour, Fullerton, Calif., ext. 530 nm and emis. 590 nm) at the end of min incubation. A standard curve of resorufin fluorescence was constructed using concentrations ranging from 1 to 1,000 nmol in EBSS. […] The constructed standard curve was used to convert the fluorescence values obtained from the plate reader to nanomoles of resorufin. Rate of formation of resorufin, as calculated from the early linear increase in the fluorescence curve, was defined as cytochrome P450 activity and expressed as nmol/min.
Cytochrome P450 enzymes play a key role in detoxifying xenobiotics and were used in these studies to asses hepatocyte function. […] BROD and MROD activity can be determined from the enzymatic conversion of resorufin.

[8] = polystyrene culture, OSM or SNAP supplemented
[9] = polystyrene secondary culture, 10 ng/ml OSM or 250 μM SNAP, days 4-10

For Oncostatin-M [OSM], the albumin secretion [1, 8] was “not detected at any level”, the “ALB Secretion” value [1, 9] was “−” and the “cell number reached from 5×10^4 Day 17 cells” value [2] was 1×10^6 cells. The CK18 expression [3, 8] was “not detected at any level”, the CK18 [3, 9] was “−” and the glycogen storage [4, 8] was “not detected at any level”. For the same substance, the Glycogen [4, 9] was “−”, the “Urea secretion time course” value ([5]; polystyrene culture, supplemented) was “greatest at day eight” and the Urea [5, 9] was “+”. For the same substance, the “albumin expression (percentage of cells expressing albumin)” value ([6]; collagen sandwich culture, 10 days post re-plating) was 80%, the “Intracellular ALB” value [6, 9] was “+” and the “Time for which ALB expression was maintained” value ([6]; polystyrene secondary/tertiary culture, supplemented, SNAP at a lower level) was “up to eight”. For the same substance, the CYP450 mediated detoxification [7, 8] was “not detected at any level” and the CYP450 [7, 9] was “−”.
